The target of this assay is KRas (Homo sapiens, UniProt P01116, G12C). Briefly: KRas degradation in NCI-H2030 cells by Western blot, normalized to GAPDH (data of Table 14). To be noted: for Dmax: NCI-H2030. On the set-up: host or cells: NCI-H2030. The format is cell-based. In short, it runs like this:
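After overnight adherence and 24 h without FBS, compounds added at 0.3, 1 or 3 μM (0.1% DMSO) for 24 h (VHL-based) or 72 h (others). Western blot of RIPA lysates, KRas signal over GAPDH relative to DMSO; DC50 and DMax derived, or <25% scored visually.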
A general note: Immunoblotting shows a protein as a band on a membrane.

As to `C=CC(=O)N1CCN(c2nc(O[C@H](C)CN3CCC(OCCOCCOCCOCC(=O)N[C@H](C(=O)N4C[C@H](O)C[C@H]4C(=O)N[C@@H](C)c4ccc(-c5scnc5C)cc4)C(C)(C)C)CC3)nc3c2CCN(c2cc(O)cc4ccccc24)C3)CC1` [compound 408], the “Percent Degradation at Indicated Concentration (μM)” value reads like this: (H2030 cells, 0.3 μM) “C (Percent Degradation: C ≤ 35)”; (H2030 cells, 1 μM) “C (Percent Degradation: C ≤ 35)”; (H2030 cells, 3 μM) “C (Percent Degradation: C ≤ 35)”.

On to `C=CC(=O)N1CCN(c2nc(NCCC(=O)N(C)CCOCCOCCNc3cccc4c3C(=O)N(C3CCC(=O)NC3=O)C4=O)nc3c(F)c(-c4cc(O)cc5ccccc45)c(Cl)cc23)CC1` (centres unmarked) [compound 57, 3-((4-(4-acryloylpiperazin-1-yl)-6-chloro-8-fluoro-7-(3-hydroxynaphthalen-1-yl)quinazolin-2-yl)amino)-N-(2-(2-(2-((2-(2,6-dioxopiperidin-3-yl)-1,3-dioxoisoindolin-4-yl)amino)ethoxy)ethoxy)ethyl)-N-methylpropanamide], for which the “Percent Degradation at Indicated Concentration (μM): 0.3” value (“Percent Degradation … 0.3” below) (H2030 cells, 0.3 μM) was “C (C ≤ 35)”. The “Percent Degradation at Indicated Concentration (μM): 1” value (shortened to “Percent Degradation … (μM): 1”) (H2030 cells, 1 μM) is recorded as “C (C ≤ 35)”. In addition, under “H2030 cells, 3 μM”, the “Percent Degradation at Indicated Concentration (μM): 3” value (“Percent Degradation … (μM): 3” for short) was “C (C ≤ 35)”. Under “H2030 cells”, this molecule returned a Dmax not above 35%.

Molecule `C=CC(=O)N1CCN(c2nc(NCCC(=O)N(C)CCOCCOCCOCCOCCNc3cccc4c3C(=O)N(C3CCC(=O)NC3=O)C4=O)nc3c(F)c(-c4c(O)cccc4F)c(Cl)cc23)CC1` [compound 116, 3-(((R)-4-(4-acryloylpiperazin-1-yl)-6-chloro-8-fluoro-7-(2-fluoro-6-hydroxyphenyl)quinazolin-2-yl)amino)-N-(14-((2-(2,6-dioxopiperidin-3-yl)-1,3-dioxoisoindolin-4-yl)amino)-3,6,9,12-tetraoxatetradecyl)-N-methylpropanamide] gave a Dmax not above 35%. Further, the “Percent Degradation at Indicated Concentration (μM)” value (H2030, 0.3 μM) is on record as “C (Percent Degradation: C ≤ 35)”. Also, the “Percent Degradation at Indicated Concentration (μM)” value (H2030, 1 μM) was “C (Percent Degradation: C ≤ 35)”. Besides, the “Percent Degradation at Indicated Concentration (μM)” value (H2030, 3 μM) is reported as “C (Percent Degradation: C ≤ 35)”.

Turning to `C=CC(=O)N1CCN(c2nc(NCCC(=O)N(C)CCNc3cccc4c3C(=O)N(C3CCC(=O)NC3=O)C4=O)nc3c(F)c(-c4cc(O)cc5ccccc45)c(Cl)cc23)CC1` (centres unmarked) [compound 55, 3-((4-(4-acryloylpiperazin-1-yl)-6-chloro-8-fluoro-7-(3-hydroxynaphthalen-1-yl)quinazolin-2-yl)amino)-N-(2-((2-(2,6-dioxopiperidin-3-yl)-1,3-dioxoisoindolin-4-yl)amino)ethyl)-N-methylpropanamide], the “Percent Degradation at Indicated Concentration (μM): 0.1” value (H2030 cells, 0.1 μM) is listed as “C (C ≤ 35)”. The “Percent Degradation … 0.3” value (H2030 cells, 0.3 μM) is given as “C (C ≤ 35)”. The “Percent Degradation … (μM): 1” value (H2030 cells, 1 μM) is given as “C (C ≤ 35)”. The same molecule showed a Dmax (H2030 cells) not above 35%.

Molecule `C=CC(=O)N1CCN(c2nc(NCCC(=O)N(C)CCOc3cc(-c4scnc4C)ccc3CNC(=O)[C@@H]3C[C@@H](O)CN3C(=O)[C@H](c3cc(C)no3)C(C)C)nc3c(F)c(-c4c(O)cccc4F)c(Cl)cc23)CC1` (atropisomer, axis not shown) [compound 127, (25,4R)-N-(2-(2-(3-(((S)-4-(4-acryloylpiperazin-1-yl)-6-chloro-8-fluoro-7-(2-fluoro-6-hydroxyphenyl)quinazolin-2-yl)amino)-N-methylpropanamido)ethoxy)-4-(4-methylthiazol-5-yl)benzyl)-4-hydroxy-1-((S)-3-methyl-2-(3-methylisoxazol-5-yl)butanoyl)pyrrolidine-2-carboxamide] had a Dmax not above 35%. Also, the “Percent Degradation at Indicated Concentration (μM)” value (H2030, 0.3 μM) is listed as “C (Percent Degradation: C ≤ 35)”. Besides, under “H2030, 1 μM”, the “Percent Degradation at Indicated Concentration (μM)” value is on record as “C (Percent Degradation: C ≤ 35)”. Further, the “Percent Degradation at Indicated Concentration (μM)” value (H2030, 3 μM) was “C (Percent Degradation: C ≤ 35)”.

On to `CCC(=O)N1CCN(c2nc(NCCC(=O)N(C)CCOCCOCCOCCOCC(=O)N[C@H](C(=O)N3C[C@H](O)C[C@H]3C(=O)N[C@@H](C)c3ccc(-c4scnc4C)cc3)C(C)(C)C)nc3c(F)c(-c4cc(O)cc5ccccc45)c(Cl)cc23)CC1` [compound 189, (2S,4R)-1-((2S)-2-(tert-butyl)-21-((6-chloro-8-fluoro-7-(3-hydroxynaphthalen-1-yl)-4-(4-propionylpiperazin-1-yl)quinazolin-2-yl)amino)-18-methyl-4,19-dioxo-6,9,12,15-tetraoxa-3,18-diazahenicosanoyl)-4-hydroxy-N-((S)-1-(4-(4-methylthiazol-5-yl)phenyl)ethyl)pyrrolidine-2-carboxamide], for which the “Percent Degradation … 0.3” value (H2030 cells, 0.3 μM) is listed as “C (C ≤ 35)”. Under “H2030 cells, 1 μM”, the “Percent Degradation … (μM): 1” value was “C (C ≤ 35)”. Also, where the note is “H2030 cells, 3 μM”, the “Percent Degradation … (μM): 3” value is “C (C ≤ 35)”. Further, under “H2030 cells”, the greatest degradation seen (Dmax) is not above 35%.

Regarding `C=CC(=O)N1CCN(c2nc(NCCC(=O)N(C)CCOCCOCCOCCNc3cccc4c3C(=O)N(C3CCC(=O)NC3=O)C4=O)nc3c(F)c(-c4c(O)cccc4F)c(Cl)cc23)CC1` [compound 113, 3-(((S)-4-(4-acryloylpiperazin-1-yl)-6-chloro-8-fluoro-7-(2-fluoro-6-hydroxyphenyl)quinazolin-2-yl)amino)-N-(2-(2-(2-(2-((2-(2,6-dioxopiperidin-3-yl)-1,3-dioxoisoindolin-4-yl)amino)ethoxy)ethoxy)ethoxy)ethyl)-N-methylpropanamide], the Dmax was not above 35%. The “Percent Degradation at Indicated Concentration (μM)” value (H2030, 0.3 μM) is reported as “C (Percent Degradation: C ≤ 35)”. Also, the “Percent Degradation at Indicated Concentration (μM)” value (H2030, 1 μM) is “C (Percent Degradation: C ≤ 35)”. Also, for the setting “H2030, 3 μM”, the “Percent Degradation at Indicated Concentration (μM)” value is listed as “C (Percent Degradation: C ≤ 35)”.

For the molecule `C=CC(=O)N1CCN(c2nc(NCCC(=O)N(C)CCOCCOCCOCC(=O)N[C@H](C(=O)N3C[C@H](O)C[C@H]3C(=O)N[C@@H](C)c3ccc(-c4scnc4C)cc3)C(C)(C)C)nc3c(F)c(-c4cc(O)cc5ccccc45)c(Cl)cc23)CC1` [compound 193, (2S,4R)-1-((2S)-18-((4-(4-acryloylpiperazin-1-yl)-6-chloro-8-fluoro-7-(3-hydroxynaphthalen-1-yl)quinazolin-2-yl)amino)-2-(tert-butyl)-15-methyl-4,16-dioxo-6,9,12-trioxa-3,15-diazaoctadecanoyl)-4-hydroxy-N-((S)-1-(4-(4-methylthiazol-5-yl)phenyl)ethyl)pyrrolidine-2-carboxamide], the “Percent Degradation … 0.3” value (H2030 cells, 0.3 μM) was “C (C ≤ 35)”. Further, for the setting “H2030 cells, 1 μM”, the “Percent Degradation … (μM): 1” value is listed as “C (C ≤ 35)”. In addition, the “Percent Degradation … (μM): 3” value (H2030 cells, 3 μM) is reported as “C (C ≤ 35)”. This molecule returned a Dmax (H2030 cells) not above 35%.

As for `CCC(=O)N1CCN(c2nc(NCCC(=O)N(C)CCOCCOCCOc3cc(-c4scnc4C)ccc3CNC(=O)[C@@H]3C[C@@H](O)CN3C(=O)[C@H](c3cc(C)no3)C(C)C)nc3c(F)c(-c4cc(O)cc5ccccc45)c(Cl)cc23)CC1` [compound 333, (2S,4R)-N-(2-(2-(2-(2-(3-((6-chloro-8-fluoro-7-(3-hydroxynaphthalen-1-yl)-4-(4-propionylpiperazin-1-yl)quinazolin-2-yl)amino)-N-methylpropanamido)ethoxy)ethoxy)ethoxy)-4-(4-methylthiazol-5-yl)benzyl)-4-hydroxy-1-((S)-3-methyl-2-(3-methylisoxazol-5-yl)butanoyl)pyrrolidine-2-carboxamide], the “Percent Degradation … 0.3” value (H2030 cells, 0.3 μM) was “C (C ≤ 35)”. Where the note is “H2030 cells, 1 μM”, the “Percent Degradation … (μM): 1” value is “C (C ≤ 35)”. Moreover, under “H2030 cells, 3 μM”, the “Percent Degradation … (μM): 3” value is “C (C ≤ 35)”. For the same molecule, the Dmax (H2030 cells) was not above 35%.

As usually defined, the Dmax is the greatest extent of degradation seen. Lower therefore signals a partial loss of target.

The values above are taken from patent US12552783B2, “Modulators of proteolysis and associated methods of use” (Arvinas Operations, Inc., priority 2018, dated 2026).
